Measurements: US20180298344A1, “Realistic Humanized Model of Disease Matrix Environment for Evaluation of Therapeutic Reversal or Cell Fate” (Yale University, priority 2017, published 2018)

Tests used:
[1] = test system: human microvascular pericytes (PC); test: Gelatinase zymography of active MMP2 and MMP9 from TGF-β1-activated PC with or without nintedanib; type: cell-based
[2] = test system: cultured lung fibroblasts; details: cultured lung fibroblasts in vitro; cited from earlier work
[3] = test system: human microvascular pericytes (PC); test: ELISA of MMPs in supernatant of TGF-β1-activated PC with or without nintedanib; type: cell-based; details: nintedanib versus TGF-β1 alone
[4] = test system: idiopathic pulmonary fibrosis patients; details: IPF patients; cited from earlier work
[5] = test system: human microvascular pericytes (PC); test: Short term (7 day) myofibroblast differentiation of PC on low, medium, high stiffness hydrogels with TGF-β1 or bleomycin activation; type: cell-based
Protocol: Human microvascular PC were isolated from a readily available and nearly inexhaustible source, human placental tissue, by microvascular segment explant outgrowth (Sava et al., Microcirculation, 2015, 22:54-67; Ayres-Sander et al., PLoS One, 2013, 8:e60025; Lauridsen et al., FASEB, 2014, 28:1166-1180; Maier et al., Microcirculation, 2010, 17:367-380). Human placental tissue was segmented, digested with collagenase, and the resulting cells were cultured in M199 (Gibco, Grand Island, NY, USA) medium supplemented with 20% FBS (Hyclone Laboratories, Logan, Utah, USA), and 1% penicillin-streptomycin (Gibco). Isolated pericytes were screened by flow cytometry against NG2 (H-300, Santa Cruz Biotechnology), CD90 (K-15, Santa Cruz), CD146 (P1H12, Biolegend, San Diego, Calif., USA), PDGFR-β (18A2, Santa Cruz), α-SMA (1A4, Santa Cruz), SMMHC (N-16, Santa Cruz), CD31 (C20, Santa Cruz), CD34 (581, Sigma) and CD45 (MEM-28, Sigma). As negative control, PC were incubated with isotype matched IgG. Samples were run on a Stratedigm S1000EXi Flow Cytometer (Stratedigm, San Jose, Calif. USA) and analyzed with FlowJo software (Tree Star, Ashland, Oreg., USA).
Polyacrylamide hydrogels were prepared as previously described (Tse and Engler, Current protocols in cell biology, editorial board, Juan S. Bonifacino et al, 2010, Chapter 10, Unit 10-16). Briefly, amino-silanated coverslips were prepared by treatment with 0.1M NaOH, followed by 3-aminopropyltriethoxysilane (Sigma), and crosslinked with glutaraldehyde. Chloro-silanated coverslips were treated with dichlorodimethylsilane (Sigma). Polyacrylamide solutions of varying stiffness were prepared by altering the concentrations of acrylamide (Bio-Rad, Hercules, Calif., USA) and bis-acrylamide (Bio-Rad). Ammonium persulfate (Sigma) and tetramethylethylenediamine (Bio-Rad) were used as cross-linkers. The solution was placed between the chloro-silanated and amino-silanated coverslips and cross-linked under ambient lighting for 30 minutes, after which the amino-silanated slide, containing the hydrogel, was hydrated in PBS. The ECM components were chemically conjugated to the polyacrylamide hydrogel using the naturally occurring amine residues on the proteins. Sulfa-SANPAH (Thermo Fisher, Grand Island, N.Y., USA) was added in 50 mM 4-(2-hydroxyethyl)-1-piperazineethanesulfonic acid buffer (Sigma) and the hydrogels were placed under UV light (365 nm, 10 mW/cm^2) for 15 minutes, and incubated overnight with either 0.5 mg/mL solubilized healthy or IPF human lung ECM, or isolated ECM proteins (0.1 mg/mL human plasma fibronectin (Millipore, Billerica, Mass., USA) and 0.1 mg/mL collagen I (Sigma). Validation of protein conjugation was performed by tagging ECM with NHS-Fluorescein (5/6-carboxyfluorescein succinimidyl ester), dialyzing overnight, and rinsed extensively (Syed et al., J Vis, Exp, 2015, 97).
For short term (7 day) differentiation studies, PC (passage 3-7) were seeded on healthy or IPF lung tissue slices, polyacrylamide hydrogels, or 25 mm glass coverslips (VWR) at 100×10^3 cells per sample and activated with control media (non-activated), or 1 ng/mL TGF-β1 (PeproTech, Rocky Hill, N.J., USA) for 7 days (18, 19). For bleomycin activation, the cells were activated with 1 μg/mL bleomycin sulfate (Cayman Chemical, Ann Arbor, Mich.) for 1 day and the media was replaced with non-activated media for the remaining 6 days (Sava et al., Microcirculation, 2015, 22:54-67; Sterling et al., J Bio Chem, 1983, 258:14438-14444). TGF-β1 and bleomycin concentrations were based on reports consistent with activation of fibroblasts (Sava et al., Microcirculation, 2015, 22:54-67; Maroni and Davis, Bio Reprod, 2012, 87:127). Treatment with CCG-1423 (Sigma) was performed at day 0 for the full 7 days, and labeled as early treatment, or at day 7 and performed for 7 days, and labeled as late treatment. […]

[6] = 7 days, low, medium, high stiffness hydrogels with fibronectin and collagen I, TGF-β1 1 ng/mL 7 days or bleomycin 1 μg/mL 1 day, flow cytometry

Row | generation of active MMP9 ([1]; P<0.01) | generation of active MMP2 ([1]; P<0.05) | Molecule | TGF-β1-induced myofibroblast differentiation and matrix deposition [2] | expression of MMP10 [3] | MMP13 in supernatant ([3]; P<0.001) | MMP9 in supernatant ([3]; P<0.01) | MMP8 in supernatant ([3]; P<0.05) | decline in forced vital capacity [4] | vimentin expression compared to non-activated PC on substrates of the same stiffness [5, 6] | α-SMA expression compared to non-activated PC on substrates of the same stiffness [5, 6] | proportion of α-SMA-expressing PC ([5]; soft or stiff hydrogels, up to 7 days, presence or absence of TGF-β1)
1 | enhanced | enhanced | COC(=O)c1ccc2c(c1)NC(=O)/C2=C(\Nc1ccc(N(C)C(=O)CN2CCN(C)CC2)cc1)c1ccccc1 [nintedanib] | oppose | did not increase | substantial increases | substantial increases | substantial increases | reducing the decline in forced vital capacity | – | – | –
2 | – | – | TGF-β1: transforming growth factor (TGF)-β1, fibrotic activator, used at 1 ng/mL | – | – | – | – | – | – | did not induce a significant increase | did not induce a significant increase | failed to affect
